Assay results taken from paper PMC8845285, “Serotoninergic receptor ligands improve Tamoxifen effectiveness on breast cancer cells” (BMC Cancer, 2022).

Assays:
[1] = target: T1, serotonin 5-HT1A receptor (Rattus norvegicus, UniProt P19327); assay: radioligand binding assay, 5-HT1A, [3H]-8-OH-DPAT; settings: rat brain cortex
T1 construct: serotonin 5-HT1A receptor, [^3H]-8-OH-DPAT, rat brain cortex; from tissue; host or cells: rat brain cortex
T1 sequence (P19327 1-422): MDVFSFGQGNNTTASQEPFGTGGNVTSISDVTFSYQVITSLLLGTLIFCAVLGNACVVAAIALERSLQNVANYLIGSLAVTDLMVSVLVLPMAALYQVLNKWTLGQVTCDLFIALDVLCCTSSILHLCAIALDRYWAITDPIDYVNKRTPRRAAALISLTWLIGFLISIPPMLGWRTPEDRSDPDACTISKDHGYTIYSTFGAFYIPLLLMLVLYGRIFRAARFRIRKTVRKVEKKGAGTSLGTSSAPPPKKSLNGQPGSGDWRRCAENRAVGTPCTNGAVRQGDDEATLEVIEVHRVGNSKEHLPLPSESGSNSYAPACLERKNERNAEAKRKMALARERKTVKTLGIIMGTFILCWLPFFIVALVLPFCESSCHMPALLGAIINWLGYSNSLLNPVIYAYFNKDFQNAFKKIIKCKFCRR
Procedure: (§1) All reactions were monitored by TLC, carried out on Merck 60G F254 plates with fluorescent indicator and the plates were visualized with UV light (254 nm). Each final compound and intermediate was purified by silica gel column chromatography (Macherey-Nagel 60 0,063–0,2 mm/70–230 mesh). […] Unless otherwise stated, all spectra were recorded in CDCl3. Chemical shifts are reported in ppm using Me4Si as internal standard. The following abbreviations are used to describe peak patterns when appropriate: s (singlet), d (doublet), t (triplet), m (multiplet), q (quartet), qt (quintet), dd (double doublet), ddd (double dd), bs (broad singlet). Mass spectra of the final products were performed on LTQ Orbitrap XL™ Fourier transform mass spectrometer (FTMS) equipped with ESI ION MAX™ source (Thermo Fisher, San José, USA). Melting points were determined using a Buchi B-540 hot-stage instrument and are uncorrected. […] All the compounds were dissolved in 5% DMSO. The following specific radioligands and tissue sources were used: (a)serotonin 5-HT1A receptor, [^3H]-8-OH-DPAT, rat brain cortex; (b) serotonin 5-HT2A receptor, [^3H]ketanserin, rat brain cortex; (c)serotonin 5-HT2C receptor, [^3H]mesulergine, rat brain cortex. Non-specific binding was determined as described in the experimental section, and specific binding as the difference between total and non-specific binding. […] The IC50 values obtained were used to calculate apparent inhibition constants (Ki) by the method of Cheng and Prussoff, from the following equation: Ki = IC50/(1 + S/KD) where S represents the concentration of the hot ligand used and KD its receptor dissociation constant (KD values, obtained by Scatchard analysis, were calculated for each labeled ligand). Radioligand binding assays for 5-HT1A were performed following a published procedure. 5-HT2A and 5-HT2C binding assays were performed reported by Herndon et al..

[2] = target: T2, serotonin 5-HT2C receptor (Rattus norvegicus, UniProt P08909); assay: radioligand binding assay, 5-HT2C, [3H]mesulergine; settings: rat brain cortex; read-out: Ki ± SD, 5-HT2C [3H]Mesulergine
T2 construct: serotonin 5-HT2C receptor, [^3H]mesulergine, rat brain cortex; from tissue; host or cells: rat brain cortex
T2 sequence (P08909 33-460): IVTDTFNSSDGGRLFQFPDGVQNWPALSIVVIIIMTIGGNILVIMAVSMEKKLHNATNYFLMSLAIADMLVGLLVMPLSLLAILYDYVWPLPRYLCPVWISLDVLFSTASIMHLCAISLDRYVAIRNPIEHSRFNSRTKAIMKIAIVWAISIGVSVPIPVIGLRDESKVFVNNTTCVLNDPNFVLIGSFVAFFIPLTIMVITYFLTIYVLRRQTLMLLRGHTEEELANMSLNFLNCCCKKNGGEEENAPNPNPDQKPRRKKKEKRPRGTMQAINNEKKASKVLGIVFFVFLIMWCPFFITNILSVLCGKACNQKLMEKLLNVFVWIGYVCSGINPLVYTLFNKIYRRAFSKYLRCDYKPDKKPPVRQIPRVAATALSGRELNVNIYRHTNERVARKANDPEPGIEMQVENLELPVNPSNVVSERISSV
Procedure: as §1

SKBR3 cells = assay: SKBR3 cell viability, sulforhodamine B assay; format: cell-based, human; settings: for IC50: Homo sapiens, SK-BR-3, 72 h treatment
Procedure: MCF7 (ER^+, PR^+, HER2^−), SKBR3 (ER^−, PR^+, HER2^+) and MDA-MB231 (ER^−, PR^−, HER2^−) human BC cells and MCF10A non-cancer breast epithelial cells were available in our laboratory. MCF7, SKBR3 and MDA-MB231 cells were cultured in DMEM, supplemented with 10% FBS, 2 mM glutamine, 100 units/ml penicillin and 100 units/ml streptomycin. MCF10A cells were cultured in MEBM, supplemented with 0.4% BPE, 0.1% hEGF, 0.1%, Insulin, 0.1% Hydrocortisone and 0.1% GA-1000. […] Treatment with SER were carried out in culture conditions. Treatment with Tamoxifen and/or SER were carried out upon 48 h estrogen starvation in phenol-red free medium supplemented with 10% Charcoal Stripped (C/S) FBS, 2 mM glutamine, 100 units/ml penicillin and 100 units/ml streptomycin.
Cells were fixed with 50% trichloroacetic acid for at least 2 h at 4 °C, washed with distilled and de-ionized water, air-dryed and stained 30 min with 0.4% sulforhodamine B in 1% acetic acid. Unbound dye was removed and 10 mM tris-HCl solution (pH 7.5) was added to dissolve the protein-bound dye. Cell survival was assessed by optical density determination at 510 nm using a microplate reader.
Fig. 3 Effect of SER on SKBR3 cell viability. […] Cell viability was assessed, after 72 h, by sulforhodamine B assay (see Methods).

[3] = target: T3, serotonin 5-HT2A receptor (Rattus norvegicus, UniProt P14842); assay: radioligand binding assay, 5-HT2A, [3H]ketanserin; settings: rat brain cortex; for Ki: read-out: Ki ± SD, 5-HT2A [3H]Ketanserin
T3 construct: serotonin 5-HT2A receptor, [^3H]ketanserin, rat brain cortex; from tissue; host or cells: rat brain cortex
Procedure: as §1

T3 sequence (P14842 whole entry): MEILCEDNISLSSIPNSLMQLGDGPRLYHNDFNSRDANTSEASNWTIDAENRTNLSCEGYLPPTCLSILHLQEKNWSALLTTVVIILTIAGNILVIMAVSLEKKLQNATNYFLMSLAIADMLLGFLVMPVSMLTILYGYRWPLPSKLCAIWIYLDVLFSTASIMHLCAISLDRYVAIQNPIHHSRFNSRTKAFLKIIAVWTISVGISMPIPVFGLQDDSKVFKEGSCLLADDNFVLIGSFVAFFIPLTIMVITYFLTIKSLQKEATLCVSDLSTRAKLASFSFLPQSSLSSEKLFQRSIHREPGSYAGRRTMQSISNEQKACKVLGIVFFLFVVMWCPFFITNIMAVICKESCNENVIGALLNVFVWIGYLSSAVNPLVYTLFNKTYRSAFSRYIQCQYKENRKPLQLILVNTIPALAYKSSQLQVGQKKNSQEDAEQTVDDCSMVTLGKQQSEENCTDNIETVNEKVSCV

SMILES	Ki ± SD, 5-HT1A [3H]8OH-DPAT [1]	Ki [2]	IC50 (SKBR3 cells)	Ki [3]	Ki ([1]; read-out: Ki ± SD, 5-HT1A [3H]8OH-DPAT)	reduction of SKBR3 cell viability (SKBR3 cells; 50 μM, 72 h)	Ki ± SD, 5-HT2A [3H]Ketanserin [3]
O=C1C2C3C=CC(C3)C2C(=O)N1OCCN1CCN(c2ccc(Cl)c(Cl)c2)CC1 (centres unmarked) [SER68]	No affinity	1.13 ± 0.16 nM	260000 ± 94900 nM	153 ± 70 nM			
N#CN=C(NCCCN1CCN(C(c2ccc(F)cc2)c2ccc(F)cc2)CC1)c1ccccn1 [SER79]	no affinity	21.4 ± 1.22 nM	53600 ± 10400 nM	504 ± 39.5 nM	> 10000 nM	≈ 50%	weak
